Experimental data from US20230365493A1, “COMPOUNDS AND METHODS” (DEMAGTECH PTY LTD, priority 2020, published 2023).

Legend:
[1] = tested on: Arabidopsis thaliana; experiment: Small-scale drift (volatility) assay; design: species or system Arabidopsis thaliana Col-0; conditions: for drift burn (volatility), FIG. 6: 15 mM and 30 mM, same methodology; for drift behaviour, FIG. 27: 2.5 or 5 mM, images recorded at 17 days; for drift burn (volatility), FIG. 5: 5, 10 or 15 mM in lid in centre of pot, imaged after 2 weeks
Experimental: A small-scale drift assay was established. Pots (63×63×59 mm) were filled with Seedling Substrate Plus+ soil (Bord na Móna Horticulture Ltd, Newbridge, Ireland) consisting of Irish peat. Soil was pre-wet before sowing to saturation and a plastic lid from a 50 mL tube placed in the centre of each pot. Seeds of wild type Col-0 Arabidopsis thaliana were sown around each of the lids. Seeds were cold-treated for 3 days in the dark at 4° C. to synchronize germination and then grown in a chamber at 22° C., with 60% relative humidity and in a 16 h light/8 h dark photoperiod. […] After growth for 2 weeks plants were imaged. (In the case of FIG. 27, images were recorded at 17 days).
A second experiment was performed using the same methodology, but at higher concentrations (15 mM and 30 mM).

[2] = tested on: Eragrostis tef (tef); experiment: Activity vs a panel of plants: Eragrostis tef; assay type: in vivo; conditions: 31.25 μM to 4000 μM; imaged day 12
Excerpt: (§1) Pots (63×63×59 mm) were filled with Seedling Substrate Plus+ soil (Bord na Móna Horticulture Ltd, Newbridge, Ireland) consisting of Irish peat. Soil was pre-wet to saturation before sowing seeds. Seeds of the following species were sown. • Arabidopsis thaliana • Cynodon dactylon (couch grass) • Eragrostis tef (tef) • Lolium rigidum (herbicide resistant ryegrass) • Ratibida columnifera (prairie coneflower) • Raphanus raphanistrum (wild radish) • Solanum lycopersicum (tomato) • Triticum aestivum (wheat)
(§2) The number of seeds depended on germination rate and plant size. Seeds were sown in pots (63×63×59 mm) of Seedling Substrate Plus+ soil (Bord na Móna Horticulture Ltd, Newbridge, Ireland) consisting of Irish peat. Soil was pre-wet before sowing to saturation and watered throughout the experiment to maintain adequate moisture. No fertilizer was added. Seeds were cold-treated 7 days in the dark at 4° C. to synchronize germination and grown in a chamber at 22° C., with 60% relative humidity and a 16 h light/8 h dark photoperiod. […]
(§3) Each compound was tested on seedlings by pipetting 600 μL of 0, 31.25, 62.5, 125, 250, 500, 1000, 2000 or 4000 μmol/L solutions directly onto the plants; these quantities and concentrations are equivalent to ˜10, 20, 40, 78, 156, 312, 625 and 1250 g/ha a.i. […]

[3] = tested on: Raphanus raphanistrum (wild radish); experiment: Activity vs a panel of plants: Raphanus raphanistrum; assay type: in vivo; conditions: 31.25 μM to 4000 μM; imaged day 10
Excerpt: as §1, §2, §3

[4] = tested on: Lolium rigidum (herbicide resistant ryegrass); experiment: Activity vs a panel of plants: Lolium rigidum; assay type: in vivo; conditions: 31.25 μM to 4000 μM; imaged day 12
Excerpt: as §1, §2, §3

[5] = tested on: Arabidopsis thaliana; experiment: Activity vs a panel of plants: Arabidopsis thaliana; assay type: in vivo; conditions: 31.25 μM to 4000 μM; imaged day 12
Excerpt: as §1, §2, §3

[6] = tested on: Ratibida columnifera (prairie coneflower); experiment: Activity vs a panel of plants: Ratibida columnifera; assay type: in vivo; conditions: 31.25 μM to 4000 μM; imaged day 12
Excerpt: as §1, §2, §3

[7] = tested on: Cynodon dactylon (couch grass); experiment: Activity vs a panel of plants: Cynodon dactylon; assay type: in vivo; conditions: 31.25 μM to 4000 μM; imaged day 10
Excerpt: as §1, §2, §3

[8] = tested on: Triticum aestivum (wheat); experiment: Activity vs a panel of plants: Triticum aestivum; assay type: in vivo; conditions: 31.25 μM to 4000 μM; imaged day 12
Excerpt: as §1, §2, §3

[9] = tested on: A. thaliana wild type Col-0 or single-locus DMOc line; experiment: Compatibility with the DMOc dicamba tolerance trait; assay type: in vivo, Arabidopsis thaliana; conditions: wild type vs DMOc line; dicamba 7-125 μM, 1·HCl 31-500 μM; sprayed at 4 and 7 days; imaged Day 11
Excerpt: To recreate dicamba tolerance by dicamba monooxygenase in A. thaliana similarly to that made by Behrens et al. (2007, Science 316: 1185-1188) a synthetic gene encoding the oxygenaseDIC from Stenotrophomonas maltophilia strain DI-6 (GenBank accession AY786443) was made to include a 58-residue chloroplast targeting leader used by Anderson and Smith (1986, Biochem. J. 240: 709-715) and incorporated a […] mutation said to provide useful changes in pH and temperature optima (See, for example, […] in International Patent Application WO2007146706A2). A BamHI site immediately preceding the sequence encoding the start Met and a SacI site immediately after the stop codon were used to subclone this synthetic DMOc gene into pMDC43 (Curtis and Grossniklaus 2003 Plant Physiol. 133: 462-469), from which the mGFP6 coding sequence and Gateway recombination cassette were removed by the same restriction enzymes, putting DMOc under control of a double CaM[…] promoter and providing it the nopaline synthase terminator. The plasmid pMDC43-DMOc was transferred from E. coli containing the plasmid to Agrobacterium tumefaciens (strain LBA4404) using a helper strain (E. coli […] pRK2013). Wild type Col-0 Arabidopsis thaliana was transformed by in planta transformation. The first transgenic generation (T1) was selected on MS-agar plates (1% agar, 1×MS salts, pH 5.7, 1% glucose) containing 20 μg/mL hygromycin. […]

[10] = tested on: Solanum lycopersicum (tomato); experiment: Activity vs a panel of plants: Solanum lycopersicum; assay type: in vivo; conditions: 31.25 μM to 4000 μM; imaged day 10
Excerpt: as §1, §2, §3

Row | drift burn (volatility), FIG. 6 [1] | drift behaviour, FIG. 27 [1] | drift burn (volatility), FIG. 5 [1] | Structure (SMILES) | activity against Eragrostis tef on an equimolar basis, FIG. 10 [2] | activity against Raphanus raphanistrum on an equimolar basis, FIGS. 13 and 14 [3] | activity against Lolium rigidum on an equimolar basis, FIG. 11 [4] | activity against Arabidopsis thaliana on an equimolar basis, FIG. 7 [5] | activity against Ratibida columnifera on an equimolar basis, FIG. 12 [6] | activity against Cynodon dactylon on an equimolar basis, FIGS. 8 and 9 [7] | activity against Triticum aestivum on an equimolar basis, FIG. 17 [8] | compatibility with the dicamba tolerance (DMOc) trait, FIG. 26 [9] | activity against Solanum lycopersicum on an equimolar basis, FIGS. 15 and 16 [10]
1 | did not show any drift burn | does not drift | no drift burn at all was visible | COc1c(Cl)ccc(Cl)c1C(=O)OCCN(C)C.Cl [Compound 1. HCl, 2-(dimethylamino)ethyl 3,6-dichloro-2-methoxybenzoate hydrochloride] | comparable activity | comparable activity | comparable activity | comparable activity | comparable activity | comparable activity | comparable activity | Compatible with the DMOc Trait | comparable activity
2 | did | drifted | burn symptoms are apparent | COc1c(Cl)ccc(Cl)c1C(=O)O [dicamba, 3,6-dichloro-2-methoxybenzoic acid, reference compound] | comparable activity | comparable activity | comparable activity | comparable activity | comparable activity | comparable activity | comparable activity | compatibility | comparable activity
